Structures can show the parent of a compound that is named as a salt.
Legend:
Assay type in all cases: cell-based
[1] = test system: Chikungunya virus (CHIKV); experiment: microbe, parasite or virus in culture; conditions: Chikungunya virus, Vero, 48 h, read-out: Percent viral inhibition CHKV
dengue virus (DENV) = experiment: microbe, parasite or virus in culture; conditions: Dengue virus, Vero, 120 h, read-out: Percent viral inhibition DENY
Marburg virus (MARV) = experiment: organism not typed; conditions: Vero, 72 h, read-out: Percent viral inhibition MARV

CNC(=O)CN1CCN(Cc2cc(Oc3ccc(N4CCNCC4)nc3)nc(-c3cc(Cl)cc(Cl)c3)c2)CC1 [Example 1, 2-(4-((2-(3,5-dichlorophenyl)-6-((6-(piperazin-1-yl)pyridin-3-yl)oxy)pyridin-4-yl)methyl)piperazin-1-yl)-N-methylacetamide]
inhibition at 1 µM [1]: 6.99% | inhibition at 1 µM (dengue virus (DENV)): 0% | inhibition at 1 µM (Marburg virus (MARV)): 0%

CC(=O)NCC1(O)CCN(Cc2cc(Oc3ccc(N4CCNCC4)nc3)nc(-c3cc(Cl)cc(Cl)c3)c2)CC1 [Example 2, N-((1-((2-(3,5-dichlorophenyl)-6-((6-(piperazin-1-yl)pyridin-3-yl)oxy)pyridin-4-yl)methyl)-4-hydroxy-piperidin-4-yl)methyl)acetamide]
inhibition at 1 µM [1]: 33.8% | inhibition at 1 µM (dengue virus (DENV)): 34.3% | inhibition at 1 µM (Marburg virus (MARV)): 60.4%

O=C(O)CC1CCN(Cc2cc(Oc3ccc(N4CCNCC4)nc3)nc(-c3cc(Cl)cc(Cl)c3)c2)CC1 [Example 4, 2-(1-((2-(3,5-dichlorophenyl)-6-((6-(piperazin-1-yl)pyridin-3-yl)oxy)pyridin-4-yl)methyl)piperidin-4-yl) acetic acid]
inhibition at 1 µM [1]: 18.4% | inhibition at 1 µM (dengue virus (DENV)): 16.6% | inhibition at 1 µM (Marburg virus (MARV)): 70.8%

COC(=O)NCC1(O)CCN(Cc2cc(Oc3ccc(N4CCNCC4)nc3)nc(-c3cc(Cl)cc(Cl)c3)c2)CC1 [Example 6, methyl ((1-((2-(3,5-dichlorophenyl)-6-((6-(piperazin-1-yl)pyridin-3-yl)oxy)pyridin-4-yl)methyl)-4-hydroxypiperidin-4-yl)methyl)carbamate]
inhibition at 1 µM [1]: 0% | inhibition at 1 µM (dengue virus (DENV)): 0% | inhibition at 1 µM (Marburg virus (MARV)): 0%

O=S(=O)(O)CCC1CCN(Cc2cc(Oc3ccc(N4CCNCC4)nc3)nc(-c3cc(Cl)cc(Cl)c3)c2)CC1 [Example 7, 2-(1-((2-(3,5-dichlorophenyl)-6-((6-(piperazin-1-yl)pyridin-3-yl)oxy)pyridin-4-yl)methyl)piperidin-4-yl) ethanesulfonic acid]
inhibition at 1 µM [1]: 9.36% | inhibition at 1 µM (dengue virus (DENV)): 12.9% | inhibition at 1 µM (Marburg virus (MARV)): 51.9%

O=S(=O)(O)CC1CCN(Cc2cc(Oc3ccc(N4CCNCC4)nc3)nc(-c3cc(Cl)cc(Cl)c3)c2)CC1 [Example 8, (1-((2-(3,5-dichlorophenyl)-6-((6-(piperazin-1-yl)pyridin-3-yl)oxy)pyridin-4-yl)methyl)piperidin-4-yl)methanesulfonic acid]
inhibition at 1 µM [1]: 1.77% | inhibition at 1 µM (dengue virus (DENV)): 14.7% | inhibition at 1 µM (Marburg virus (MARV)): 10.9%

CC(=O)NCC1CCN(Cc2cc(Oc3ccc(N4CCN(CC(=O)O)CC4)nc3)nc(-c3cc(Cl)cc(Cl)c3)c2)CC1 [Example 10]
inhibition at 1 µM [1]: 13.1% | inhibition at 1 µM (dengue virus (DENV)): 8.5% | inhibition at 1 µM (Marburg virus (MARV)): 34.8%

CC(=O)NCC1CCN(Cc2cc(Oc3ccc(N4CCN(CCC(=O)O)CC4)nc3)nc(-c3cc(Cl)cc(Cl)c3)c2)CC1 [Example 11, 3-(4-(5-((4-((4-(Acetamidomethyl)piperidin-1-yl)methyl)-6-(3,5-dichlorophenyl)pyridin-2-yl)oxy)pyridin-2-yl)piperazin-1-yl)propanoic acid, 4 hydrochloride]
inhibition at 1 µM [1]: 17.9% | inhibition at 1 µM (dengue virus (DENV)): 30.2% | inhibition at 1 µM (Marburg virus (MARV)): 41.6%

CC(=O)NCC1CCN(Cc2cc(Oc3ccc(N4CCN(CCS(C)(=O)=O)CC4)nc3)nc(-c3cc(Cl)cc(Cl)c3)c2)CC1 [Example 12, N-((1-((2-(3,5-dischlorophenyl)-6-((6-(4-(2-(methylsulfonyl)ethyl)piperazin-1-yl)pyridin-3-yl)oxy)pyridin-4-yl)methyl)piperidin-4-yl)methyl)acetamide]
inhibition at 1 µM [1]: 24.7% | inhibition at 1 µM (dengue virus (DENV)): 58.3% | inhibition at 1 µM (Marburg virus (MARV)): 44.5%

CC(=O)NCC1CCN(Cc2cc(Oc3ccc(N4CCN(CCC(N)=O)CC4)nc3)nc(-c3cc(Cl)cc(Cl)c3)c2)CC1 [Example 13, 3-(4-(5-((4-((4-(acetamidomethyl)piperidin-1-yl)methyl)-6-(3,5-dichlorophenyl)pyridin-2-yl)oxy)pyridin-2-yl)piperazin-1-yl)propanamide]
inhibition at 1 µM [1]: 15.9% | inhibition at 1 µM (dengue virus (DENV)): 26.5% | inhibition at 1 µM (Marburg virus (MARV)): 25.4%

CC(=O)NCC1CCN(Cc2cc(Oc3ccc(N4CCN(CCc5nnn[nH]5)CC4)nc3)nc(-c3cc(Cl)cc(Cl)c3)c2)CC1 [Example 14]
inhibition at 1 µM [1]: 3.02% | inhibition at 1 µM (dengue virus (DENV)): 0% | inhibition at 1 µM (Marburg virus (MARV)): 17.3%

CC(=O)NCC1CCN(Cc2cc(Oc3ccc(N4CCN(C(C)CCS(C)(=O)=O)CC4)nc3)nc(-c3cc(Cl)cc(Cl)c3)c2)CC1 (stereo not drawn) [Example 16]
inhibition at 1 µM [1]: 4.14% | inhibition at 1 µM (dengue virus (DENV)): 41.7% | inhibition at 1 µM (Marburg virus (MARV)): 28.6%

CNC(=O)NCC1CCN(Cc2cc(Oc3cnc(N4CCN(CCC(C)[S+](C)[O-])CC4)nc3)nc(-c3cc(Cl)cc(Cl)c3)c2)CC1 (stereo not drawn) [Example 17, 1-((1-((2-(3,5-chlorophenyl)-6-((2-(4-(3-(methylsulfinyl)butyl)piperazin-1-yl)pyrimidin-5-yl)oxy)pyridin-4-yl)methyl)piperidin-4-yl)methyl)-3-methylurea]
inhibition at 1 µM [1]: 7.16% | inhibition at 1 µM (dengue virus (DENV)): 57.4% | inhibition at 1 µM (Marburg virus (MARV)): 52.9%

CC(=O)NCC1CCN(Cc2cc(Oc3cnc(N4CCN(C(C)CCS(C)(=O)=O)CC4)nc3)nc(-c3cc(Cl)cc(Cl)c3)c2)CC1 (stereo not drawn) [Example 19, N-((1-((2-(3,5-dichlorophenyl)-6-((2-(4-(4-(methylsulfonyl)butan-2-yl)piperazin-1-yl)pyrimidin-5-yl)oxy)pyridin-4-yl)methyl)piperidin-4-yl)methyl)acetamide]
inhibition at 1 µM [1]: 21.6% | inhibition at 1 µM (dengue virus (DENV)): 35.5% | inhibition at 1 µM (Marburg virus (MARV)): 79.8%

CC(CO)N1CCN(c2ncc(Oc3cc(CN4CCC(CC(=O)O)CC4)cc(-c4cc(Cl)cc(Cl)c4)n3)cn2)CC1 (stereo not drawn) [Example 21, 2-(1-((2-(3,5-dichlorophenyl)-6-((2-(4-(1-hydroxypropan-2-yl)piperazin-1-yl)pyrimidin-5-yl)oxy)pyridin-4-yl)methyl)piperidin-4-yl)acetic acid]
inhibition at 1 µM [1]: 26.2% | inhibition at 1 µM (dengue virus (DENV)): 8.18% | inhibition at 1 µM (Marburg virus (MARV)): 46.4%

O=C(O)CC1CCN(Cc2cc(Oc3cnc(N4CCN(C5CC(O)C5)CC4)nc3)nc(-c3cc(Cl)cc(Cl)c3)c2)CC1 (stereo not drawn) [Example 22, 2-(1-((2-(3,5-dichlorophenyl)-6-((2-(4-(3-hydroxycyclobutyl)piperazin-1-yl)pyrimidin-5-yl)oxy)pyridin-4-yl)methyl)piperidin-4-yl)acetic acid]
inhibition at 1 µM [1]: 26.8% | inhibition at 1 µM (dengue virus (DENV)): 64.4% | inhibition at 1 µM (Marburg virus (MARV)): 52.5%

O=C(O)CC1CCN(Cc2cc(Oc3cnc(N4CCN(C(CO)CO)CC4)nc3)nc(-c3cc(Cl)cc(Cl)c3)c2)CC1 [Example 23, 2-(1-((2-(3,5-dichlorophenyl)-6-((2-(4-(1,3-dihydroxypropan-2-yl)piperazin-1-yl)pyrimidin-5-yl)oxy)pyridin-4-yl)methyl)piperidin-4-yl)acetic acid]
inhibition at 1 µM [1]: 21.6% | inhibition at 1 µM (dengue virus (DENV)): 11% | inhibition at 1 µM (Marburg virus (MARV)): 52.5%

C[C@]1(O)C[C@@H](N2CCN(c3ncc(Oc4cc(CN5CCC(CC(=O)O)CC5)cc(-c5cc(Cl)cc(Cl)c5)n4)cn3)CC2)C1 [Example 24, 2-(1-((2-(3,5-dichlorophenyl)-6-((2-(4-((1s,3s)-3-hydroxy-3-methylcyclobutyl)piperazin-1-yl)pyrimidin-5-yl)oxy)pyridin-4-yl)methyl)piperidin-4-yl)acetic acid]
inhibition at 1 µM [1]: 34.6% | inhibition at 1 µM (dengue virus (DENV)): 25.8% | inhibition at 1 µM (Marburg virus (MARV)): 63.1%

Source: US20230011571A1, “SMALL MOLECULE FURIN INHIBITORS FOR TREATING INFECTIOUS DISEASES” (BP Asset V, Inc., priority 2019, published 2023)
